For 21 compounds, T/C results are on record in PubChem BioAssay AID330 (DTP/NCI, 2004).

The subject of this assay is P388 leukemia ip, CD2F1 mice, survival T/C. The assay can be described thus: NCI In Vivo Anticancer Drug Screen. Data for tumor model P388 Leukemia (intraperitoneal) in CD2F1 (CDF1) mice. The following applies: endpoint: median survival time, higher = longer survival. In a few lines:
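Mice carrying the transplanted tumor received test compound or vehicle. Survival was recorded in each group, and the value is the treated-group measurement divided by that of the vehicle-treated control group.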

Where [1] appears, read: dose: 50.0 mg/kg/injection, schedule: Q01DX005 (ip), vehicle: Klucel (hydroxypropylcellulose) (HPC).
The mark [2] stands for this setting: dose: 100.0 mg/kg/injection, schedule: Q01DX005 (ip), vehicle: Klucel (hydroxypropylcellulose) (HPC).
Setting [3] is: dose: 25.0 mg/kg/injection, schedule: Q01DX009 (ip), vehicle: saline with Tween-80.
The mark [4] stands for this setting: dose: 50.0 mg/kg/injection, schedule: Q01DX009 (ip), vehicle: saline with Tween-80.
The mark [5] stands for this setting: dose: 100.0 mg/kg/injection, schedule: Q01DX009 (ip), vehicle: saline with Tween-80.
Setting [6] is: dose: 200.0 mg/kg/injection, schedule: Q01DX009 (ip), vehicle: saline with Tween-80.
Setting [7] is: dose: 60.0 mg/kg/injection, schedule: Q01DX005 (ip), vehicle: Klucel (hydroxypropylcellulose) (HPC).
The mark [8] stands for this setting: dose: 120.0 mg/kg/injection, schedule: Q01DX005 (ip), vehicle: Klucel (hydroxypropylcellulose) (HPC).
[9] abbreviates: dose: 60.0 mg/kg/injection, schedule: Q01DX005 (ip), vehicle: saline with Tween-80.
[10] abbreviates: dose: 120.0 mg/kg/injection, schedule: Q01DX005 (ip), vehicle: saline with Tween-80.
The mark [11] stands for this setting: dose: 240.0 mg/kg/injection, schedule: Q01DX005 (ip), vehicle: saline with Tween-80.

“And” between values parts separate entries of the source, which are not always exact repeats. Equal values may be shown once. Inconclusive results and toxic doses are left out.

For the compound `CCN(CC)C(Cl)=Nc1ccc(Cl)cc1`, the T/C by setting is: (dose: 50.0 mg/kg/injection, schedule: Q01DX009 (ip), vehicle: Klucel (hydroxypropylcellulose) (HPC)) 94 % of control; (dose: 100.0 mg/kg/injection, schedule: Q01DX009 (ip), vehicle: Klucel (hydroxypropylcellulose) (HPC)) 100 % of control; (dose: 200.0 mg/kg/injection, schedule: Q01DX009 (ip), vehicle: Klucel (hydroxypropylcellulose) (HPC)) 94 % of control.

For `Cc1nc([N+](=O)[O-])c(Sc2nncc(-c3ccccc3)n2)n1C`, the T/C under setting [1] is 111 % of control and the T/C under setting [2] was 104 % of control.

In the case of `COC(=O)C(Sc1ccc(Cl)cc1)C1SC(=S)N(C)C1=O` (stereo not given), the T/C (dose: 12.5 mg/kg/injection, schedule: Q01DX009 (ip), vehicle: saline with Tween-80) was 96 % of control; the T/C under setting [3] is 116 % of control and 88 % of control; the T/C under setting [4] was 104 % of control and 112 % of control; the T/C under setting [5] is 103 % of control and 107 % of control.

Regarding `CN1c2ccc(Cl)cc2C(=O)NC1c1ccc([N+](=O)[O-])s1` (stereo not given), the T/C by setting is: under setting [4], 106 % of control; under setting [5], 108 % of control; under setting [6], 113 % of control; (dose: 400.0 mg/kg/injection, schedule: Q01DX009 (ip), vehicle: saline with Tween-80) 115 % of control.

For the compound `CCC1CCCCN1Cc1ccccc1` (stereo not given), the T/C runs as follows: under setting [7], 108 % of control; under setting [8], 110 % of control.

Turning to `O=C(O)CCC(=O)OC(C1CO1)C(OC(=O)CCC(=O)O)C1CO1` (stereo not given), the T/C was 90 % of control (dose: 2.5 mg/kg/injection, schedule: Q01DX009 (ip), vehicle: saline); 103 % of control (dose: 2.5 mg/kg/injection, schedule: Q01DX009 (ip), vehicle: sodium bicarbonate); 116 % of control (dose: 5.0 mg/kg/injection, schedule: Q01DX009 (ip), vehicle: saline); 101 % of control (dose: 5.0 mg/kg/injection, schedule: Q01DX009 (ip), vehicle: sodium bicarbonate); 120 % of control (dose: 10.0 mg/kg/injection, schedule: Q01DX009 (ip), vehicle: sodium bicarbonate); 153 % of control (dose: 20.0 mg/kg/injection, schedule: Q01DX009 (ip), vehicle: saline). In addition, the T/C (dose: 20.0 mg/kg/injection, schedule: Q01DX009 (ip), vehicle: sodium bicarbonate) is 122 % of control; the T/C (dose: 40.0 mg/kg/injection, schedule: Q01DX009 (ip), vehicle: saline) was 167 % of control; the T/C (dose: 80.0 mg/kg/injection, schedule: Q01DX009 (ip), vehicle: saline) is 206 % of control; the T/C (dose: 80.0 mg/kg/injection, schedule: Q01DX009 (ip), vehicle: sodium bicarbonate) was 169 % of control; the T/C (dose: 160.0 mg/kg/injection, schedule: Q01DX009 (ip), vehicle: sodium bicarbonate) was 198 % of control; the T/C (dose: 320.0 mg/kg/injection, schedule: Q01DX009 (ip), vehicle: saline) was 87 % of control. Also, the T/C (dose: 320.0 mg/kg/injection, schedule: Q01DX009 (ip), vehicle: sodium bicarbonate) was 93 % of control.

Take `O=C1CSC(c2cccs2)N1c1nncs1` (stereo not given): the T/C under setting [7] was 100 % of control; the T/C under setting [8] is 100 % of control; the T/C (dose: 240.0 mg/kg/injection, schedule: Q01DX005 (ip), vehicle: Klucel (hydroxypropylcellulose) (HPC)) is 172 % of control.

As for `Cc1ccc(C(=O)Nc2ccncc2)cc1`, the T/C is 109 % of control (dose: 6.25 mg/kg/injection, schedule: Q01DX009 (ip), vehicle: Klucel (hydroxypropylcellulose) (HPC)) and 99 % of control (dose: 12.5 mg/kg/injection, schedule: Q01DX009 (ip), vehicle: Klucel (hydroxypropylcellulose) (HPC)).

Take `COc1ccc2c3csc4ccccc4c-3nc2c1`: the T/C (dose: 16.0 mg/kg/injection, schedule: Q01DX009 (ip), vehicle: saline) was 107 % of control; the T/C (dose: 25.0 mg/kg/injection, schedule: Q01DX009 (ip), vehicle: saline) was 115 % of control; the T/C (dose: 35.0 mg/kg/injection, schedule: Q01DX009 (ip), vehicle: saline) was 95 % of control.

Consider `CC12CCC(O)CC1CCC1C2CCC2(C)C(c3ccc(=O)oc3)CC3OC312` (stereo not given), for which the T/C by setting is: (dose: 0.31 mg/kg/injection, schedule: Q01DX009 (ip), vehicle: saline with Tween-80) 108 % of control; (dose: 0.62 mg/kg/injection, schedule: Q01DX009 (ip), vehicle: saline with Tween-80) 100 % of control; (dose: 1.25 mg/kg/injection, schedule: Q01DX009 (ip), vehicle: saline with Tween-80) 104 % of control; (dose: 2.5 mg/kg/injection, schedule: Q01DX009 (ip), vehicle: saline with Tween-80) 115 % of control; (dose: 5.0 mg/kg/injection, schedule: Q01DX009 (ip), vehicle: saline with Tween-80) 100 % of control and 87 % of control; (dose: 10.0 mg/kg/injection, schedule: Q01DX009 (ip), vehicle: saline with Tween-80) 87 % of control. In addition, the T/C (dose: 20.0 mg/kg/injection, schedule: Q01DX009 (ip), vehicle: saline with Tween-80) is 88 % of control.

For the compound `C[C@@H]1CC=C[C@@H](NC(=O)OCc2ccccc2)[C@H]1C=O`, the T/C was 103 % of control under setting [9], 99 % of control under setting [10] and 98 % of control under setting [11].

In the case of `CCCC1OCC(O)C(C(O)C(=O)CN(Cc2ccccc2)Cc2ccccc2)O1` (stereo not given), the T/C is, setting by setting: (dose: 50.0 mg/kg/injection, schedule: Q01DX005 (ip), vehicle: saline with Tween-80) 100 % of control; (dose: 100.0 mg/kg/injection, schedule: Q01DX005 (ip), vehicle: saline with Tween-80) 98 % of control; (dose: 200.0 mg/kg/injection, schedule: Q01DX005 (ip), vehicle: saline with Tween-80) 98 % of control.

Consider `CCCOSSOCCC`, for which the T/C was 103 % of control under setting [3], 100 % of control under setting [4] and 99 % of control under setting [5].

`Cc1ccc(C(=O)N=Nc2c(Cl)c(O)c3ccccc3c2O)cc1`: the T/C by setting is: under setting [1], 103 % of control; under setting [2], 99 % of control; (dose: 200.0 mg/kg/injection, schedule: Q01DX005 (ip), vehicle: Klucel (hydroxypropylcellulose) (HPC)) 103 % of control.

Regarding `Cc1ccc(S(=O)(=O)CC2(Br)CCc3ccccc3C2=O)cc1` (stereo not given), the T/C runs as follows: (dose: 100.0 mg/kg/injection, schedule: Q04DX003 (ip), vehicle: saline) 97 % of control; (dose: 200.0 mg/kg/injection, schedule: Q04DX003 (ip), vehicle: saline) 91 % of control; (dose: 400.0 mg/kg/injection, schedule: Q04DX003 (ip), vehicle: saline) 95 % of control.

Turning to `COc1ccc(C(c2cc3c(cc2O)OCO3)n2ccnc2)cc1` (stereo not given), the T/C by setting is: under setting [9], 99 % of control; under setting [10], 99 % of control; under setting [11], 96 % of control.

Regarding `Cc1ccc(S(=O)(=O)OCCN(CCOS(=O)(=O)c2ccc(C)cc2)c2ccc(N=O)cc2)cc1`, the T/C was 163 % of control (dose: 25.0 mg/kg/injection, schedule: Q04DX003 (ip), vehicle: saline with Tween-80); 168 % of control (dose: 50.0 mg/kg/injection, schedule: Q04DX003 (ip), vehicle: saline with Tween-80); 122 % of control (dose: 100.0 mg/kg/injection, schedule: Q04DX003 (ip), vehicle: saline sonified); 177 % of control (dose: 100.0 mg/kg/injection, schedule: Q04DX003 (ip), vehicle: saline with Tween-80).

Turning to `CC(=O)Nc1ccc(S(=O)(=O)Nc2cnccn2)cc1`, where the note is “dose: 100.0 mg/kg/injection, schedule: Q01DX001 (ip), vehicle: saline with Tween-80”, the T/C was 93 % of control.

Consider `CCn1c2ccccc2c2cc(N=Nc3cc4ccccc4[nH]3)ccc21`, for which the T/C is 115 % of control under setting [4], 113 % of control under setting [5] and 113 % of control under setting [6].

With `C=C=C(COC(C)=O)ON1CCOCC1`, the T/C is 99 % of control (dose: 100.0 mg/kg/injection, schedule: Q01DX001 (ip), vehicle: saline); 103 % of control (dose: 200.0 mg/kg/injection, schedule: Q01DX001 (ip), vehicle: saline); 100 % of control (dose: 400.0 mg/kg/injection, schedule: Q01DX001 (ip), vehicle: saline).

As to `O=C1CSC(c2ccc(C(F)(F)F)cc2)N1c1nncs1` (stereo not given), the T/C was 99 % of control under setting [9], 104 % of control under setting [10] and 97 % of control under setting [11].
